“Also recorded” adds a separate entry of the source.
Legend:
mice [1] = assay: Sucrose consumption test (anhedonia); assay type: in vivo, mouse; conditions: i.c.v. CCPA, three bolus injections at ZT=0, 3 and 6; vehicle baseline 30.55±3.60 g/kg; p=0.008
Description: Sucrose consumption experiments can be conducted known to one of skill in the art. For a typical test, mice are gradually acclimatized to increasing durations of water deprivation (0, 4, 8, 12, and 16 hours) and i.c.v. infusion of saline over the course of five days to minimize the stressfulness of the testing. On the sixth day, instead of receiving water at the end of the deprivation period, mice are given a 1% v/w solution of sucrose. This is repeated for three days (days 6-9) to establish baseline sucrose consumption levels. During the deprivation period preceding day 10, mice are given i.c.v. infusions of the identified test compound, followed by the presentation of sucrose as during baseline consumption testing. The average baseline (saline infusion) sucrose consumption is then compared to the average sucrose consumption following test compound infusion. Results are analyzed using a Student's t-test to compare means.
Sucrose consumption was conducted (Papp, M. et al., Psychopharmacology (Berl.), 104:255-9, 1991). After the acclimatization and habituation period mice were given access to sucrose for three days (days 6-9) to establish baseline sucrose consumption levels. Mice were then given i.c.v. infusions of CCPA administered as a series of three bolus injections at ZT=0, 3 and 6, followed by the presentation of sucrose (day 10). […]

mice [2] = assay: Rotorod test; assay type: in vivo, mouse; conditions: CCPA versus vehicle
From the text: The rotorod used a rotating cylinder that was 4 cm in diameter, fixed 35 cm above the ground and enclosed by transparent Plexiglas. The rotorod cylinder was covered in textured rubber coating, which facilitates traction. A small electric motor provided power to turn the rotorod via a rubber belt. The rotorod was set to rotate once every 5 s.

mice [3] = assay: Open field test (locomotor activity); assay type: in vivo, mouse; conditions: wildtype mice treated i.c.v.
Description: The open field test was performed in accordance with the […] resource phenotyping protocol (Brown, S. et al., Nat. Genet., 37:1155, 2005). Open field behavior of mice was videorecorded from above, and assessed using Ethovision. Results from tracking analysis were analyzed using ANOVA to compare means.

C57Bl/6J mice [4] = assay: Forced swim test (FST); assay type: in vivo, mouse; conditions: for duration of reduced immobility in forced swim test after onset of administration: cohorts tested 12, 36, 84 and 108 hours after first treatment
Description: The forced swim test is typically performed in a quiet experimental room as described in previous reports (Porsolt, R. et al., Arch. Int. Pharmacodyn. Ther., 229:327-336, 1977). For a typical test, animals are placed, for example, into a plexiglass cylinder (25 cm height, 25 cm diameter) containing 20 cm height of water at 23-25 C for 10 min. The animals typically display very fast swimming initially, lasting 1-2 min, followed by increasing immobility. Immobile time is measured during the last 4 min of the total period for statistical analysis. The animals are videotaped and movements are digitized from above. Immobility can be automatically scored, for example, using Ethovision (Noldus Information Technology Inc., Leesburg, U.S.A.).
The forced swim test (FST) was performed in a quiet experimental room. Animals where placed into a Plexiglass cylinder (25 cm height, 25 cm diameter) containing 20 cm height of water at 23-25° C. for 10 min. […] Immobile time was measured during the last 4 min of the total period for statistical analysis. The animals were videotaped and movements were digitized from above. Immobility was automatically scored using Ethovision (Noldus Information Technology Inc., Leesburg, U.S.A.). Results from tracking analysis were analyzed using ANOVA to compare means.

mice [5] = assay: EEG/EMG recording, vigilance state scoring and power spectra; assay type: in vivo, mouse
From the text: Mice were implanted with EEG and EMG electrodes under ketamine/xylazine anesthesia. After 5-7 days of post-operative recovery, lightweight recording cables were connected to the head implants and mice were placed in cylindrical polypropylene containers containing nest material, water and food ad libitum. Mice were acclimated to the sleep chamber for 5-7 days (12:12 light-dark (LD) cycle; lights on at 8 AM). EEGs and EMGs were then collected on a Pinnacle Technologies system and digitized at 1000 Hz. Following acclimation, baseline 24 h recordings were made.
NonREM sleep (“NREM” sleep), REM sleep and wake were determined by an experimenter blind to experimental condition. On the baseline day, the amount of each state (expressed as a percentage of total recording time) and the duration of individual sleep and wake episodes were computed. Transitions between NREM sleep and REM sleep were also measured during the light phase. To investigate sleep the beneficial effects of sleep deprivation mice, mice were sleep deprived (SD) from 8 a.m. to 8 p.m. at the beginning of the major sleep period (light phase) using a Pinnacle sleep deprivation chamber. All EEG data were analyzed by normalizing each data point to the average power of the EEG from 0.5 to 40 Hz (FIG. 4), and by normalizing each data point (+12 hr, +36 hr, +84 hr, +108 hr) to the corresponding vehicle data points (FIG. 8).
To investigate whether A1R activation alone is capable of altering the sleep architecture and mimicking the effects of sleep deprivation, the adenosine receptor agonist 2-chloro-N(6)-cyclopentyladenosine (CCPA; […]) was administered via i.c.v. cannulae. Following recovery and one week of habituation to the headstage, EEG activity was recorded from mice with i.c.v. saline vehicle infusion for two days to establish baseline EEG activity patterns. The EEG changes following injection of the A1R agonist CCPA were monitored. […] The normalized power from 0.5 to 4.0 Hz was also analyzed, comparing saline baseline to CCPA infusion (FIG. 4D).
Adenosine agonists cause a sustained enhancement of delta power during wakefulness. As a final step in testing the antidepressive actions of adenosine activation of A1Rs was determined to be sufficient to mimic the effects of sleep deprivation on depressive-like behaviors. […] The adenosine receptor agonist 2-chloro-N(6)-cyclopentyladenosine (CCPA; 500 nM) was delivered i.c.v. while performing EEG/EMG recordings.

A1R = biological target: T1, A1R (Mus musculus, UniProt Q60612); assay: fEPSP enhancement at Schaeffer collateral synapse of hippocampal area CA1 in acute slices (adenosine tone); assay type: cell-based; conditions: CPT 200 nM
T1 construct: from tissue; host or cells: acute mouse hippocampal slices (C57Bl/6J background; wild type and dnSNARE mice)
T1 sequence (Q60612 1-326): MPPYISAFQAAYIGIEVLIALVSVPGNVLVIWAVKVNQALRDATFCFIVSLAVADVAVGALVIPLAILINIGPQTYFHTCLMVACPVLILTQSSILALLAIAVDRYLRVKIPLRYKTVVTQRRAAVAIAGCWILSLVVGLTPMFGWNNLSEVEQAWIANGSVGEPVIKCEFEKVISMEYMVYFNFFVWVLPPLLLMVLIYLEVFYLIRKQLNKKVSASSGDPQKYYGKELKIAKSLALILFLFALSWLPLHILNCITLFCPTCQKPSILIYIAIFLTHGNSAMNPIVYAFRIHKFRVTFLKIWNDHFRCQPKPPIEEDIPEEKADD
Description: Mice were briefly anaesthetized with isofluorane and then decapitated, and slices were prepared (Manzoni, O. et al., Science, 265:2098-101, 1994). The brain was rapidly extracted in cold cutting solution (124 mM NaCl, 26 mM NaHCO3, 1 mM NaHPO4, 10 mM Glucose, 1 mM sodium pyruvate, 0.6 mM ascorbate, 2.9 mM KCl, 1 mM CaCl2, 2 mM MgCl2) bubbled continuously with a 95% O2 5% CO2 gas mixture. Slices 310 μm thick were cut using a Leica VT 1000S Vibratome. Isolated hippocampal slices were transferred to a bath containing continuously oxygenated cutting solution and incubated at 30 C for a 1.5 hour recovery period. Extracellular recordings were conducted in artificial cerebrospinal fluid (aCSF, 124 mM NaCl, 26 mM NaHCO3, 1 mM NaHPO4, 10 mM Glucose, 1 mM sodium pyruvate, 2.9 mM KCl, 2 mM CaCl2, 1 mM MgCl2) continuously superfused at 1.2 mL/minute and maintained at 32.8 C. Extracellular stimulation were delivered using a 125 μm concentric Pt—Ir electrode in unipolar mode with a pulse width of 0.1 ms.
A relative measure of the extracellular adenosine level can be obtained by determining the proportional enhancement of synaptic transmission in response to the application of the A1R antagonist 8-cyclopentyltheophylline (CPT; 200 nM) an approach that has been validated using electrochemical biosensors (Schmitt, L. et al., J. Neurosci., 32:4417-25, 2012).
The physiological mechanisms underlying the effects of sleep deprivation was investigated by asking whether sleep deprivation leads to an elevation of extracellular adenosine. A relative measure of the extracellular adenosine level can be obtained by determining the proportional enhancement of synaptic transmission in response to the application of the A1R antagonist 8-cyclopentyltheophylline (CPT; 200 nM). Independent measurements of extracellular adenosine using electrochemical biosensors have validated this approach. Field excitatory postsynaptic potentials (fEPSP) were measured at the Schaeffer collateral synapse of hippocampal area CA1 before and following application of CPT.

C57Bl/6J mice [6] = assay: Tail suspension test (TST); assay type: in vivo, mouse; conditions: CPT 4 mM i.c.v.
Description: Results from tracking analysis were analyzed using ANOVA to compare means.

[7] = CCPA 500 nm i.c.v., percentage of recording time

Question: With `OCC1OC(n2cnc3c(NC4CCCC4)nc(Cl)nc32)C(O)C1O` (centres unmarked) [CCPA, 2-(2-chloro-6-(cyclopentylamino)-9H-purin-9-yl)-5-(hydroxymethyl)tetrahydrofuran-3,4-diol] as the compound, how does the sucrose consumption (mice [1]) read?
Answer: The sucrose consumption was 51.45 ± 6.35 g/kg.

Question: And the “latency to fall / locomotor activity in rotorod test” value (mice [2])?
Answer: Its value is “without accompanying changes in locomotor activity; also recorded: do not differ”.

Question: And the “locomotor activity / total distance traveled in open field” value (mice [3])?
Answer: Its value is “without accompanying changes in locomotor activity; also recorded: do not differ”.

Question: And the “beneficial effects in forced swim test 3 and 5 days after infusion” value (C57Bl/6J mice [4]; 3 and 5 days after infusion)?
Answer: Its value is “no longer observed”.

Question: And the “effect on immobile time, forced swim test” value (C57Bl/6J mice [4]; CCPA i.c.v. (ZT=0, 3 and 6), tested at ZT=12)?
Answer: The value was “decreased immobile time; also recorded: reduction in immobile time; also recorded: significantly reduces immobility”.

Question: And the “duration of reduced immobility in forced swim test after onset of administration” value (C57Bl/6J mice [4])?
Answer: The value was 36 h.

Question: And the “duration of reduced immobility in forced swim test after onset of administration” value (C57Bl/6J mice [4]; listed as COPA)?
Answer: Its value is “up to 36 hours”.

Question: What about the “duration of beneficial effects in forced swim test” value (C57Bl/6J mice [4]; three i.c.v. injections spaced evenly across a 12 hour period, cohorts at 24 hours, +1, +3, +5 days) of the same compound?
Answer: Its value is 24 h.

Question: And the “percent wake at 12 h after administration” value (mice [5]; 12 h (ZT 12) after CCPA)?
Answer: The value was “significantly greater percentage of time awake; also recorded: increased percent wake”.

Question: And the “increased percent wake at 36 h after administration” value (mice [5]; 36 h following CCPA)?
Answer: The value was “no longer present”.

Question: What about the “EEG power spectra compared to baseline saline” value (mice [5]; CCPA 500 nm i.c.v.) of the same compound?
Answer: The value was “dramatic increase in the power spectra”.

Question: What about the “duration of REM sleep” value (mice [5]; [7]) of the same compound?
Answer: Its value is 18.13±1.30%.

Question: And the “duration of non-REM sleep” value (mice [5]; [7])?
Answer: The value was 48.75±1.85%.

Question: What about the duration of wake (mice [5]; [7]) of the same compound?
Answer: The duration of wake was 31.38±1.93%.

Question: And the “delta power (0.5-4 Hz) during wakefulness after mice awoke” value (mice [5]; CCPA i.c.v. ZT=0, 3 and 6, p<0.001)?
Answer: The value was “prominent increase in delta power”.

Question: And the “percentage of time awake during administration” value (mice [5]; CCPA i.c.v. infusion, 500 nM)?
Answer: Its value is “transient decrease; also recorded: decreased”.

Question: And the “acute effect on delta power” value (mice [5]; acute, during CCPA action)?
Answer: The value was “reduce delta power”.

Question: And the “time after last administration by which effects on sleep had reversed” value (mice [5]; reversed by ZT=11, last administration at ZT=6)?
Answer: Its value is at most 5 h.

Question: What about the “time asleep ZT 1 through 10 compared to vehicle” value (mice [5]; three consecutive CCPA infusions (ZT=0, 3, 6), 500 nM i.c.v., p<0.002) of the same compound?
Answer: Its value is “significantly greater time”.

Question: Which “increase in fEPSP (adenosine tone)” value (A1R; WT undisturbed mice, ZT=0) does the source give for `Cn1c(=O)c2[nH]c(C3CCCC3)nc2n(C)c1=O` [CPT, 8-cyclopentyltheophylline] here?
Answer: Its value is 481.70±85.04%.

Question: What about the “proportional enhancement of fEPSP (adenosine tone)” value (A1R; WT, ZT=12 (end of light phase)) of the same compound?
Answer: The value was 128.15±28.91%.

Question: What about the “adenosine tone (fEPSP enhancement)” value (A1R; after 72 h of sleep deprivation, ZT=0) of the same compound?
Answer: Its value is 104.62±18.31%.

Question: What about the “adenosine tone (fEPSP enhancement)” value (A1R; dnSNARE, ZT=0) of the same compound?
Answer: The value was 61.98±16.80%.

Question: And the “adenosine tone (fEPSP enhancement)” value (A1R; dnSNARE, ZT=12)?
Answer: The value was 27.91±5.10%.

Question: And the “adenosine tone (fEPSP enhancement)” value (A1R; transient total sleep deprivation ZT 0 to ZT 12)?
Answer: The value was 367.61±24.95%.

Question: What about the “locomotor activity / total distance traveled in open field” value (mice [3]) of the same compound?
Answer: Its value is “do not differ”.

Question: What about the “basal immobility, forced swim test” value (C57Bl/6J mice [4]; CPT 4 mM i.c.v., no sleep deprivation) of the same compound?
Answer: Its value is 176.43 ± 21.77 s.

Question: What about the “immobility after sleep deprivation, forced swim test” value (C57Bl/6J mice [4]; CPT 4 mM i.c.v., sleep deprivation) of the same compound?
Answer: The value was 167.70 ± 18.89 s.

Question: And the “basal immobility, tail suspension test” value (C57Bl/6J mice [6]; no sleep deprivation)?
Answer: Its value is 187.60 ± 11.46 s.

Question: And the “immobility after sleep deprivation, tail suspension test” value (C57Bl/6J mice [6]; sleep deprivation)?
Answer: The value was 204.00 ± 3.58 s.

Question: For `CN(C)CCCN1c2ccccc2CCc2ccccc21` [imipramine], which “immobility in behavioral despair tasks” value (C57Bl/6J mice [4]; 14 days of treatment) is on record?
Answer: The value was “reduces immobility”.

Question: And the “time spent immobile, forced swim test” value (C57Bl/6J mice [4]; wildtype littermates, imipramine 20 mg/kg, chronic 14 days)?
Answer: The value was 73.00 ± 9.53 s.
